Data published in article PMC6218115, “In Vitro Potency and Preclinical Pharmacokinetic Comparison of All-D-Enantiomeric Peptides Developed for the Treatment of Alzheimer’s Disease” (Journal of Alzheimer's Disease, 2018).
Non-standard residues stand in square brackets, D forms with d. Residues, ends and D or L forms follow the SMILES beside them.

Legend:
[1] = Pharmacokinetic concentration-time profiles and parameters after i.v. and p.o. administration; format: in vivo, C57Bl/6N mice; conditions: mice; for Cmax, brain / Cmax, plasma: 3H-label LSC; for Cmax, plasma: 3 mice/time point; for AUC %ID,0 - 1440, plasma: non-compartmental analysis
Description: The pharmacokinetic profiles were investigated in 180 male C57Bl/6N mice aged 13-14 weeks, weighing about 27.4 g in average. Mice were ordered at Charles River (Germany) and housed at least one week under standard housing conditions (12/12 h light-dark cycle, approximately 22°C room temperature and 54% humidity; water and food available ad libitum) in the animal facility of the Forschungszentrum Jülich GmbH before the experiments were carried out. All animal experiments were approved by the Animal Protection Committee of the local government according to the German Protection of Animals Act (LANUV, North-Rhine-Westphalia, Germany, Az.84-02.04.2017.A029).
To determine the concentration-time profiles of ANK6, tANK6, and cANK6r in murine brain, plasma, liver, kidney, and cerebrospinal fluid (CSF) after i.v. and p.o. administration, mixed solutions of non-labelled and ^3H-labelled peptides were prepared. The administered solutions contained 1 mg/mL (i.v.) or 3 mg/mL (p.o.) of the respective D-peptide including small amounts of ^3H-labelled peptides (0.54μg/mL ^3H-ANK6, 1.79μg/mL ^3H-tANK6, or 0.98μg/mL ^3H-cANK6r). Doses were administered by body weight: i.v. 3.3 mg/kg, ANK6 & tANK6 p.o. 10 mg/kg, cANK6r p.o. 15 mg/kg. Three male C57Bl/6N mice aged 13-14 weeks were investigated per time point whereby individual outliers were excluded from further evaluation. Organs were harvested as follows: i.v. 5, 10, 30, 60, 120, 240, 360, 1080, 1440 min; p.o.: 10, 20, 30, 60, 120, 240, 360, 1080, 1440 min.
Animals whose CSF was not extracted were anesthetized with isoflurane (cp-pharma, Germany) inhalation approximately 2 min before each organ harvesting time point. Afterwards, blood was taken by cardiac puncture and the heparinized blood was centrifuged (3000 g, 5 min, 4°C) to get plasma. The plasma in the supernatant was separated and 1:1 diluted with PBS. The right brain hemisphere, 200 mg of the big liver lobe, and the right kidney were removed, weighed, and homogenized in 500μL PBS (Precellys Ceramic Kit 1.4 mm, Precellys 24, Bertin technologies SAS, France). 100μL of the diluted plasma, the homogenized brain, liver, or kidney (in triplicates), or 1–5μL (exactly determined) of the extracted CSF (extraction procedure see below, single determination) were mixed with 10 mL scintillation cocktail (Ultima Gold XR, PerkinElmer, USA). The mixture was incubated overnight (100 rpm, room temperature).
Animals whose CSF was extracted (organ harvesting time points: 60 min, 240 min, 1440 min) were i.p. anesthetized with ketamine/medetomidine approximately 20 min before each sampling time point. When the mouse was in deep narcosis, the cisterna magna was laid free and punctuated with a small capillary to extract about 5μL of CSF as described before. Afterwards, cardiac puncture, organ extractions, and sample preparations were performed as described above.
Quantification of the amount of ^3H-labelled D-peptides was performed with a LSC and the results (dpm/sample) were converted into mg/mL or % injected dose (% ID)/mL for plasma and for CSF, or in mg/g or % ID/g for brain, liver, and kidney as described before. Total peptide concentrations in the samples were back-calculated from the measured ^3H-labelled peptides’ radioactivity as described before [[20, 25, 26, 29]].
The determined peptide concentrations were plotted over time to allow for comparison of all peptides’ uptake into brain, plasma, liver, kidney, and CSF. Concentrations at 0 min were set to 0 % ID/mL or 0 % ID/g except for plasma concentrations after i.v. administration. There, concentrations were linearly back-extrapolated based on the first two measured time points (5 min, 10 min).
To calculate the pharmacokinetic parameters of ANK6, tANK6, and cANK6r for plasma and brain, concentration-time profiles were analyzed. […]

Aβ1-42 = target: T1, Aβ1-42 (Homo sapiens, UniProt P05067); test: Aβ aggregation assay (Thioflavin T); format: biochemical
T1 construct: Lyophilized Aβ1 - 42 was dissolved in the respective peptide solution; purchased Isoloid GmbH (recombinant) or Bachem AG (synthetic)
Description: The potencies of ANK6, tANK6, cANK6r, and D3 to inhibit Aβ1 - 42 aggregation was examined using Thioflavin T (ThT). For this purpose, a buffer solution composed of 20 mM sodium phosphate buffer (pH 7.4) including 50 mM sodium chloride, and 5μM ThT was prepared. Afterwards, ANK6, tANK6, cANK6r, or D3 were diluted in this solution, respectively, to final peptide concentrations between 0.3125 and 80μM (ANK6 and tANK6:0.3125, 0.625, 1.25, 2.5, 5, 10, 20μM; cANK6r: 1.25, 2.5, 5, 10, 20, 40, 80μM; D3:1.17, 2.34, 4.7, 9.4, 18.8, 37.5, 75μM).
The buffer solution only served as negative control (blank). Lyophilized Aβ1 - 42 was dissolved in the respective peptide solution to a final concentration of 10μM. D-peptide solutions with the highest concentration of the respective D-peptide containing all components, except of Aβ1 - 42, served as negative controls. Aβ1 - 42 solved in buffer solution without D-peptide served as positive control. 100μL of each solution were transferred into the wells (triplicates) of 96 well microplates (PS, black, non-binding from Greiner Bio-One, Germany) and fluorescence signals (excitationλ 440 nm, emissionλ 490 nm) were measured in a Polarstar Optima plate reader (BMG, Germany) at 37°C every 20 min for 70 h. Afterwards, the respective blank curves were subtracted from each aggregation curve to exclude background fluorescence. […] The half maximal inhibitory concentration (IC50 value) was determined by plotting the percent inhibition against the respective D-peptides’ concentrations. Datasets were fitted by nonlinear regression (one site – specific binding with Hill slope, GraphPad Prism 5).

[2] = p.o. 10 mg/kg (ANK6, tANK6) or 15 mg/kg (cANK6r)

T1 sequence (P05067 672-713 limits assumed): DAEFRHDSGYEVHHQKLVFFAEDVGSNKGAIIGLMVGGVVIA

CC[C@@H](C)[C@@H](NC(=O)[C@@H](CCCNC(=N)N)NC(=O)[C@@H](CCCCN)NC(=O)[C@H](N)CCCNC(=N)N)C(=O)N[C@H](CCCNC(=N)N)C(=O)N[C@H](CC(C)C)C(=O)N[C@@H](C(=O)N[C@@H](C(=O)N[C@H](CCCCN)C(=O)N[C@H](CCCCN)C(=O)N[C@H](CCCCN)C(=O)N[C@H](CCCNC(=N)N)C(=O)N[C@H](CCCNC(=N)N)C(=O)N[C@H](CCCCN)C(=O)N[C@H](CCCNC(=N)N)C(=O)N[C@@H](C(=O)N[C@H](CCCNC(=N)N)C(=O)N[C@H](CC(C)C)C(=O)N[C@@H](C(=O)N[C@@H](C(=O)N[C@H](CCCCN)C(=O)N[C@H](CCCCN)C(=O)N[C@H](CCCCN)C(=O)N[C@H](CCCNC(=N)N)C(N)=O)[C@H](C)O)C(C)C)[C@H](C)CC)[C@H](C)O)C(C)C [tANK6] (H-[dR][dK][dR][dI][dR][dL][dV][dT][dK][dK][dK][dR][dR][dK][dR][dI][dR][dL][dV][dT][dK][dK][dK][dR]-NH2; N-terminus assumed)
peptide concentration detected in the blood ([1]; 4 h after single oral administration of 10 mg/kg): 0.01 µM
brain/plasma ratio ([1]; 24 h after administration, i.v.): 6.89
AUC %ID,0 - 1440, brain ([1]; i.v. 3.3 mg/kg): 56.6 min*% ID/g
CL, terminal plasma clearance ([1]; i.v. 3.3 mg/kg): 88.9 mL/min/kg
MRT, plasma ([1]; i.v. 3.3 mg/kg): 7 h
t1/2, terminal half-life, plasma ([1]; i.v. 3.3 mg/kg): 18 h
tmax, brain ([1]; i.v. 3.3 mg/kg): 0.5 h
tmax, plasma ([1]; i.v. 3.3 mg/kg): 0 h
λz, terminal elimination rate constant, plasma ([1]; i.v. 3.3 mg/kg): 0.00063 min⁻¹
Cmax, brain ([1]; i.v. 3.3 mg/kg): 0.06 % ID/g
Cmax, plasma ([1]; i.v. 3.3 mg/kg, back-extrapolated to 0 min): 0.40 % ID/mL
AUC %ID,0 - 1440, plasma ([1]; i.v. 3.3 mg/kg): 26.1 min*% ID/mL
AUC %ID,0 - 1440, brain [1, 2]: 22.5 min*% ID/g
CL, terminal plasma clearance [1, 2]: 113.0 mL/min/kg
MRT, plasma [1, 2]: 11 h
t1/2, terminal half-life, plasma [1, 2]: 31 h
tmax, brain [1, 2]: 18 h
tmax, plasma [1, 2]: 4 h
λz, terminal elimination rate constant, plasma [1, 2]: 0.00038 min⁻¹
F (AUC %ID), oral bioavailability ([1]; p.o. 10 mg/kg (ANK6, tANK6) or 15 mg/kg (cANK6r) versus i.v. 3.3 mg/kg, plasma AUC %ID): 49.4%
Cmax, brain [1, 2]: 0.02 % ID/g
Cmax, plasma [1, 2]: 0.02 % ID/mL
AUC %ID,0 - 1440, plasma [1, 2]: 12.9 min*% ID/mL
IC50 (Aβ1-42; 10 μM Aβ1-42, 5 μM ThT, 20 mM sodium phosphate pH 7.4, 50 mM NaCl, 37°C, 70 h, triplicates, nonlinear regression, read-out: IC50, inhibition of Aβ1-42 aggregation into ThT-positive fibrils): 2.1 µM
molar excess with regard to Aβ for complete inhibition of Aβ1-42 fibril formation (Aβ1-42; 10 μM Aβ1-42, ThT): two-fold molar excess
reduction of the aggregation amplitude (Aβ1-42; equimolar concentration of peptide relative to Aβ1-42 (10 μM)): more than 97%
